Assay [1] concerns the target T1, RhlR (Pseudomonas aeruginosa, UniProt P54292). The experiment in a line: E. coli RhlR reporter competitive antagonism assay versus 10 μM BHL. Format: cell-based, P. aeruginosa. The conditions noted are these: compounds screened at 1 mM in the presence of 10 μM BHL, relative to activation of 10 μM BHL alone.
Assay [2] addresses T1, RhlR. The experiment in a line: E. coli RhlR reporter agonism assay. As to conditions: for % activation: compounds screened at 10 μM, RhlR activity relative to BHL at 1 mM, E. coli reporter; for EC50: read-out: EC50 (RhlR agonism, E. coli), E. coli RhlR reporter, dose-response; for fold more potent than BHL (RhlR agonism potency): EC50 relative to BHL. Type of assay: cell-based, P. aeruginosa.

Assay [3] has as its target LasR (Pseudomonas aeruginosa, UniProt P25084). Kind of assay: E. coli LasR reporter antagonism assay. As to conditions: compounds at 1 mM, versus 2 nM OdDHL (Table S3). Type of assay: cell-based, P. aeruginosa.
For assay [4], the target named is T1, RhlR. Kind of assay: P. aeruginosa PAO-JP2. Format: cell-based. As to conditions: read-out: EC50 (RhlR agonism, P. aeruginosa); P. aeruginosa PAO-JP2 prhlI-LVAgfp; in the presence of 100 nM OdDHL.

Values joined by “and” are separate entries in the source; they are usually repeats but may differ in a detail not shown here. Identical values can stand only once.

T1 sequence (P54292 whole entry): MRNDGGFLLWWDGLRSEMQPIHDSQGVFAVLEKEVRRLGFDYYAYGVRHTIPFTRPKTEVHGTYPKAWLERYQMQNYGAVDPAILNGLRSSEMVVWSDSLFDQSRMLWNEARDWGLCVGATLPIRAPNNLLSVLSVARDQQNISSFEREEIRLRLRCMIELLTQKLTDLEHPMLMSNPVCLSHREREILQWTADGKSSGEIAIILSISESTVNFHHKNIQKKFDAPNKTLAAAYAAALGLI
LasR, sequence (P25084 whole entry): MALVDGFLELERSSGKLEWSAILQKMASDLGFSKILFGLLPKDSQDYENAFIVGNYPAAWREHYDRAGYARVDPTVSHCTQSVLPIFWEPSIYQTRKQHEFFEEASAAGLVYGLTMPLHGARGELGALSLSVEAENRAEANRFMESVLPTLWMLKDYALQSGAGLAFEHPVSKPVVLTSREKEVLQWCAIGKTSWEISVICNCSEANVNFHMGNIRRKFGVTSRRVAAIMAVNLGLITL

One may read the % inhibition as the percentage by which the read-out fell short of the control. As to “1-methyl-cyclopropanoyl HL [Compound 20]”, the “% inhibition” value in assay [1] came out at 24%.
Usually EC50 stands for the concentration giving half of the maximal effect. `CCCC(=O)N[C@H]1CCOC1=O` [Compound 1, N-butanoyl-L-homoserine lactone, reference compound]: in assay [2], the “% activation” value came out at 51%. Further, the 50% effective concentration (EC50) in assay [2] (listed as 1 (BHL)) is 8.95 µM; in assay [2] (listed as BHL), ~10 µM and ~9 µM. In addition, the “LasR antagonism (% inhibition)” value in assay [3] was “antagonize”.
On to `CC(C)CC(=O)N[C@H]1CCOC1=O` [Compound 7, isovaleryl HL], for which, in assay [2], the “fold more potent than BHL (RhlR agonism potency)” value was about 10 fold, the “% activation” value is listed as 86% and the 50% effective concentration (EC50) came out at 1.02 µM. In assay [4], the EC50 came out at 1.42 µM. The “LasR antagonism (% inhibition)” value in assay [3] is listed as over 70%.
Turning to `CCC(C)C(=O)NC1CCOC1=O` (stereo not shown) [Compound 8, 2-methylbutanoyl HL], in assay [2], the “% activation” value was 55% and the concentration for a half-maximal effect (EC50) worked out at 7.77 µM.
On to `O=C(NC1CCOC1=O)C1CCC1` (stereo not shown) [Compound 17, cyclobutanoyl HL], for which, in assay [2], the “fold more potent than BHL (RhlR agonism potency)” value is about 10 fold, the “% activation” value is 79% and the EC50 turned out to be 1.78 µM. Besides, the EC50 in assay [4] turned out to be 1.41 µM. Besides, the “LasR antagonism (% inhibition)” value in assay [3] is over 70%.
Regarding `CCCC(=O)N[C@@H]1CCOC1=O` [Compound 25, D-BHL], the “RhlR agonism at 1 mM” value in assay [2] (compound at 1 mM, E. coli reporter (Table S2)) is given as “marginal activity”. The “% activation” value in assay [2] is on record as 2%. Besides, in assay [1], the “% inhibition” value is recorded as 11%.
Regarding `CCCC(=O)NC1CCSC1=O` (stereo not shown) [Compound 26], in assay [2], the “% activation” value was 71% and the concentration for a half-maximal effect (EC50) came out at 4.87 µM. Moreover, the EC50 in assay [4] stood at 3.82 µM.
For `CCCC(=O)N[C@H]1CCNC1=O` [Compound 27], the “% activation” value in assay [2] came out at 1%.
Regarding `CCCC(=O)NC1CCCC1=O` (stereo not shown) [Compound 28], the “fold less active than BHL (RhlR agonism potency)” value in assay [2] (E. coli reporter EC50 relative to BHL, p < 0.05) is “under 3 fold”. In addition, in assay [2], the “% activation” value amounted to 35% and the EC50 was 27.4 µM. Also, the concentration giving a half-maximal response (EC50) in assay [4] amounted to 14.3 µM.
Consider `CCCC(=O)NC1CCOC1` (stereo not shown) [Compound 30], for which the “% activation” value in assay [2] came to 0%.
As to Butenyl HL [Compound 14], in assay [2], the concentration for a half-maximal effect (EC50) came to 6.93 µM.
In the case of “cyclopentyl HL [Compound 3, reference compound]”, in assay [2], the “% activation” value is recorded as 76% and the concentration giving a half-maximal response (EC50) turned out to be 1.58 µM. Further, the concentration giving a half-maximal response (EC50) in assay [4] was determined as 1.22 µM.
As to cyclopropyl HL [Compound 18], the “% activation” value in assay [2] turned out to be 32%.
On to “pentenyl HL [Compound 2, reference compound]”, for which, in assay [2], the “% activation” value is given as 54% and the EC50 stood at 7.93 µM.
With propyl HL [Compound 4], the “% activation” value in assay [2] turned out to be 25%.

(Values after article PMC6200399 (ACS chemical biology, 2018).)
